Data as given in paper PMC10819888, “Benzimidazole-Based Derivatives as Apoptotic Antiproliferative Agents: Design, Synthesis, Docking, and Mechanistic Studies” (Molecules, 2024).

What was measured:
Test in all cases: NCI-60 one-dose assay
Type in all cases: cell-based
[1] = system: HT29; conditions: Homo sapiens, HT-29, HT29 (Colon Cancer), read-out: Cell Inhibition Percent
[2] = system: M14; conditions: Homo sapiens, M14 (Melanoma), read-out: Cell Inhibition Percent
[3] = system: T-47D; conditions: Homo sapiens, T47D, T-47D (Breast Cancer), read-out: Cell Inhibition Percent
[4] = system: MALME-3M; conditions: Homo sapiens, MALME-3M (Melanoma), read-out: Cell Inhibition Percent
[5] = system: HS 578T; conditions: Homo sapiens, HS 578T (Breast Cancer), read-out: Cell Inhibition Percent
[6] = system: LOX IMVI; conditions: Homo sapiens, LOX IMVI (Melanoma), read-out: Cell Inhibition Percent
[7] = system: HL-60(TB); conditions: Homo sapiens, HL-60(TB) (Leukemia), read-out: Cell Inhibition Percent
[8] = system: HOP-92; conditions: Homo sapiens, HOP-92 (Non-Small Cell Lung Cancer), read-out: Cell Inhibition Percent
[9] = system: HCT-15; conditions: Homo sapiens, HCT-15 (Colon Cancer), read-out: Cell Inhibition Percent
[10] = system: SF-268; conditions: Homo sapiens, SF-268 (CNS cancer), read-out: Cell Inhibition Percent
[11] = system: SK-MEL-5; conditions: Homo sapiens, SK-MEL-5 (Melanoma), read-out: Cell Inhibition Percent
[12] = system: BT-549; conditions: Homo sapiens, BT-549 (Breast Cancer), read-out: Cell Inhibition Percent
[13] = system: HCC-2998; conditions: Homo sapiens, HCC-2998 (Colon Cancer), read-out: Cell Inhibition Percent
[14] = system: SNB-75; conditions: Homo sapiens, SNB-75 (CNS cancer), read-out: Cell Inhibition Percent
[15] = system: SK-MEL-2; conditions: Homo sapiens, SK-MEL-2 (Melanoma), read-out: Cell Inhibition Percent
[16] = system: UACC-62; conditions: Homo sapiens, UACC-62 (Melanoma), read-out: Cell Inhibition Percent
[17] = system: A549/ATCC; conditions: Homo sapiens, A549/ATCC (Non-Small Cell Lung Cancer), read-out: Cell Inhibition Percent
[18] = system: MDA-MB-435; conditions: Homo sapiens, MDA-MB-435 (Melanoma), read-out: Cell Inhibition Percent
[19] = system: OVCAR-5; conditions: Homo sapiens, OVCAR-5 (ovarian cancer), read-out: Cell Inhibition Percent
[20] = system: UACC-257; conditions: Homo sapiens, UACC-257 (Melanoma), read-out: Cell Inhibition Percent
[21] = system: HOP-62; conditions: Homo sapiens, HOP-62 (Non-Small Cell Lung Cancer), read-out: Cell Inhibition Percent
[22] = system: NCI-H226; conditions: Homo sapiens, NCI-H226 (Non-Small Cell Lung Cancer), read-out: Cell Inhibition Percent
[23] = system: NCI-H23; conditions: Homo sapiens, NCI-H23 (Non-Small Cell Lung Cancer), read-out: Cell Inhibition Percent
[24] = system: SR; conditions: Homo sapiens, SR (Leukemia), read-out: Cell Inhibition Percent
[25] = system: NCI-H460; conditions: Homo sapiens, NCI-H460 (Non-Small Cell Lung Cancer), read-out: Cell Inhibition Percent
[26] = system: NCI-H322M; conditions: Homo sapiens, NCI-H322M (Non-Small Cell Lung Cancer), read-out: Cell Inhibition Percent
[27] = system: UO-31; conditions: Homo sapiens, UO-31 (Renal Cancer), read-out: Cell Inhibition Percent
[28] = system: OVCAR-4; conditions: Homo sapiens, OVCAR-4 (ovarian cancer), read-out: Cell Inhibition Percent
[29] = system: RPMI-8226; conditions: Homo sapiens, RPMI-8226 (Leukemia), read-out: Cell Inhibition Percent
[30] = system: A498; conditions: Homo sapiens, A498 (Renal Cancer), read-out: Cell Inhibition Percent
[31] = system: MDA-MB-468; conditions: Homo sapiens, MDA-MB-468 (Breast Cancer), read-out: Cell Inhibition Percent

SMILES	inhibition at 10 µM [1] [%]	inhibition at 10 µM [2] [%]	inhibition at 10 µM [3] [%]	inhibition at 10 µM [4] [%]	inhibition at 10 µM [5] [%]	inhibition at 10 µM [6] [%]	inhibition at 10 µM [7] [%]	inhibition at 10 µM [8] [%]	inhibition at 10 µM [9] [%]	inhibition at 10 µM [10] [%]	inhibition at 10 µM [11] [%]	inhibition at 10 µM [12] [%]	inhibition at 10 µM [13] [%]	inhibition at 10 µM [14] [%]	inhibition at 10 µM [15] [%]	inhibition at 10 µM [16] [%]	inhibition at 10 µM [17] [%]	inhibition at 10 µM [18] [%]	inhibition at 10 µM [19] [%]	inhibition at 10 µM [20] [%]	other results
O=C(NN=Cc1ccc(F)cc1)c1ccc2[nH]c(-c3ccc(Cl)cc3)nc2c1 [Compound 4d, N′-(4-Fluorobenzylidene)-2-(4-chlorophenyl)-1H-benzimidazole-5-carbohydrazide]	95.7	39.8	40.6	88.2	30	66	62.6	15.4	33.2	21.8	11	0	21	2.77	16.7	11.8	82.2	6.12	10.8	0	inhibition at 10 µM [21]: 39.5%; inhibition at 10 µM [22]: 6.86%; inhibition at 10 µM [23]: 38.6%; inhibition at 10 µM [24]: 79.3%; inhibition at 10 µM [25]: 63.8%; inhibition at 10 µM [26]: 22.4%; inhibition at 10 µM [27]: 24.6%; inhibition at 10 µM [28]: 63.6%; inhibition at 10 µM [29]: 32.5%; inhibition at 10 µM [30]: 27.1%; inhibition at 10 µM [31]: 23.9%
CCNC(=S)NNC(=O)c1ccc2[nH]c(-c3ccc(Cl)cc3)nc2c1 [Compound 5]	2.33	1.67	18.4	1.54	9.75	12.4	0	1.09	5.9	1.33	9.57	0	5.54	7.77	0	1.88	6.17	0.91	3.26	0	inhibition at 10 µM [21]: 0.87%; inhibition at 10 µM [22]: 9.79%; inhibition at 10 µM [23]: 5.79%; inhibition at 10 µM [24]: 88.9%; inhibition at 10 µM [25]: 1.06%; inhibition at 10 µM [26]: 3.36%; inhibition at 10 µM [27]: 6.39%; inhibition at 10 µM [28]: 5.13%; inhibition at 10 µM [29]: 95.8%; inhibition at 10 µM [30]: 57.7%; inhibition at 10 µM [31]: 0%
O=C(NN=Cc1ccc([N+](=O)[O-])cc1)c1ccc2[nH]c(-c3ccc(Cl)cc3)nc2c1 [Compound 4c, N′-(4-Nitrobenzylidene)-2-(4-chlorophenyl)-1H-benzimidazole-5-carbohydrazide]	91.8	74.1	89.5	92.2	63.2	101	93.4	40.3	70.1	51.5	97.4	86	85.1	30.7	33.3	56.4	65.5	52.4	46.8	74.9	inhibition at 10 µM [21]: 55.2%; inhibition at 10 µM [22]: 45.2%; inhibition at 10 µM [23]: 83.8%; inhibition at 10 µM [24]: 108%; inhibition at 10 µM [25]: 94.6%; inhibition at 10 µM [26]: 29.9%; inhibition at 10 µM [27]: 57.4%; inhibition at 10 µM [28]: 77%; inhibition at 10 µM [29]: 89.2%; inhibition at 10 µM [30]: 100%; inhibition at 10 µM [31]: 139%
COc1cc(/C=N/NC(=O)c2ccc3[nH]c(-c4ccc(Cl)cc4)nc3c2)cc(OC)c1OC [Compound 4h, N′-(3,4,5-Trimethoxybenzylidene)-2-(4-chlorophenyl)-1H-benzimidazole-5 carbohydrazide]	60.1	58	84.1	71.6	51.7	49.4	55.1	28.3	3.98	20.3	58.1	29.3	20	13.4	16.4	71.3	14.2	36	0	45.6	inhibition at 10 µM [21]: 18.3%; inhibition at 10 µM [22]: 24%; inhibition at 10 µM [23]: 46.3%; inhibition at 10 µM [24]: 54.3%; inhibition at 10 µM [25]: 17.2%; inhibition at 10 µM [26]: 12.4%; inhibition at 10 µM [27]: 11.7%; inhibition at 10 µM [28]: 0%; inhibition at 10 µM [29]: 80.1%; inhibition at 10 µM [30]: 102%; inhibition at 10 µM [31]: 0%
